Read-outs that look alike come from different tables or passages of the source.
Legend:
[1] = system: Colo205-LUC-TCF/LEF M1 reporter cell line (Wnt pathway); assay: Colo205-LUC-TCF/LEF M1 reporter gene (luciferase) inhibition; format: cell-based; conditions: 4 hours incubation, luciferase readout
Procedure, shortened: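 Luminescent readout of TCF/LEF-regulated luciferase after a 4 h, 37° C compound exposure in a stable Colo205 reporter clone (10,000 cells/well). Serial 3-fold dilutions started at 20 uM; IC50 derived using DMSO-treated cells and no-cell wells as controls.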

Colo205 = assay: Proliferation inhibition, Wnt mutant cell line Colo205; format: cell-based; conditions: Colo205, Wnt pathway-dependent, 96 hours, read-out: Antiproliferative IC50 Colo205
Procedure, shortened: (§1)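 Cells were seeded at 1000 per well, incubated 20-24 h at 37° C in 5% CO2, then exposed to 3-fold serially diluted compound (top final concentration 20 uM) for 96 hours. Viability was read by a Promega cell viability assay; IC50 values were derived relative to DMSO-only and cell-free control wells.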

DU4475 = assay: Proliferation inhibition, Wnt mutant cell line DU4475; format: cell-based; conditions: DU4475, Wnt pathway-dependent, 96 hours, read-out: Antiproliferative IC50 DU4475
Procedure, shortened: as §1

Hela = assay: Proliferation inhibition, non-Wnt mutant control cell line Hela; format: cell-based; conditions: Wnt-independent control cell line, 96 hours, read-out: Antiproliferative IC50 Hela
Text: The cell lines used in the experiment are Colo205 and DU4475 cell lines whose Wnt pathway is continuously activated and whose proliferation is Wnt pathway-dependent; while the BELA and RKO cell lines, whose Wnt pathway is not activated under normal circumstances and the proliferation is independent of Wnt pathway, as control cell lines. It is Judged that the inhibitory effect of the compound of the present invention on Wnt-dependent proliferation is not caused by other non-specific toxicity.
Treat the Colo205, Du4475, HELA and RKO cell lines cultured in their respective mediums in the logarithmic growth phase, collect the cells and prepare a uniform cell suspension of known concentration, and then add it to the 96-well cell culture plate Cell suspension, so that each well contains 1000 cells. Put it into a 5% CO2 incubator and incubate at 37° C. for 20-24 h. On the second day, the fully dissolved, 3-fold serially diluted compound was added to each cell culture well, so that the final maximum concentration in the cell culture well was 20 uM, and the culture was continued for 96 hours. In this test, Promega's cell viability detection test is used for detection. The more the cells proliferate, the stronger the final signal intensity will be. The detection instrument is SpectraMax, full wavelength mode. The wells only added with DMSO were used as positive control wells, and the wells that were not inoculated with cells were used as negative control wells. […] The IC50 value of cell proliferation inhibition was used to evaluate the inhibitory effect of the compound on the Wnt pathway and the toxic effect on normal cells (Table 2).

RKO = assay: Proliferation inhibition, non-Wnt mutant control cell line RKO; format: cell-based; conditions: Wnt-independent control cell line, 96 hours, read-out: Antiproliferative IC50 RKO
Procedure, shortened: as §1

NCI-H929 = assay: Proliferation inhibition, NCI-H929 cell line; format: cell-based, human; conditions: NCI-H929 cells, 96 hours culture, cell viability detection, read-out: Antiproliferative IC50 NCI-H929
Procedure, shortened: (§2)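 Wnt-dependent proliferation in HepG2 and NCI-H929 cells, seeded at 4000 cells/well and pre-incubated 20-24 h at 37 °C. Cells were then exposed for 96 h to 3-fold serial dilutions (top final concentration 20 uM), and viability was read by signal intensity. IC50 was referenced to DMSO-only wells and cell-free wells.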

HepG2 = assay: Proliferation inhibition, HepG2 cell line; format: cell-based; conditions: Homo sapiens; HepG2 cells, 96 hours culture, cell viability detection; read-out: Antiproliferative IC50 HepG2
Procedure, shortened: as §2

[2] = system: human myeloma cell NCI-H929 SCID xenograft; assay: Tumor growth inhibition, NCI-H929 mouse xenograft model; format: in vivo; conditions: 30 mg/kg, PO, QD x 21
Description: In this study, human myeloma cell NCI-H929 SCID xenograft model was used to evaluate the anti-tumor activity of compound 11 in vivo.
Female SCID were subcutaneously inoculated with human myeloma cells NCI-H929 to establish the NCI-H929 SCID xenograft model. After the tumor grew to an average tumor volume of about 80 mm^3, the tumor-bearing mice were randomly divided into two groups according to the tumor volume: the solvent-treated control group and the 30 mg/kg compound 11 group. Compound 11 was administered orally, once a day, and the administration cycle was 21 days. The tumor volume was measured every other day, and the body weight and tumor volume were measured on Day 21 (Table 4 and FIG. 1).

[2H]C([2H])([2H])N1c2nc(NCc3ccc(Oc4ccc(C(F)(F)F)nc4)nc3)nc3c2N(CCC3)C(=O)[C@@H]1C [105 (W199)] showed an IC50 [1] of 31 nM, an IC50 (Colo205; Homo sapiens, COLO 205) of 21 nM and an IC50 (DU4475; Homo sapiens, DU-4475) of 31 nM. It also gave an IC50 (Hela; Homo sapiens) of over 10000 nM, an IC50 (RKO; Homo sapiens) of over 10000 nM and an IC50 (NCI-H929; Homo sapiens) of 45 nM. The IC50 (HepG2) was 44 nM.
With C[C@H]1C(=O)N2CCCc3nc(NCc4ccc(Oc5cnc(C(F)(F)F)nc5)nc4)nc(c32)N1C [91 (W221)] the IC50 [1] was 28 nM, the IC50 (Colo205; Homo sapiens, COLO 205) was 31 nM and the IC50 (DU4475; Homo sapiens, DU-4475) was 24 nM. For the same molecule, the IC50 (Hela; Homo sapiens) was over 10000 nM, the IC50 (RKO; Homo sapiens) was over 10000 nM and the IC50 (NCI-H929; Homo sapiens) was 65 nM. For the same molecule, the IC50 (HepG2) was 35 nM.
Work on COC[C@H]1Cn2ccc3nc(NCc4cnn(Cc5ccc(C(F)(F)F)nc5)c4)nc(c32)N1C [68 (W49)] yielded an IC50 [1] of 12 nM, an IC50 (Colo205; Homo sapiens, COLO 205) of 8.2 nM and an IC50 (DU4475; Homo sapiens, DU-4475) of 12.8 nM. For the same molecule, the IC50 (Hela; Homo sapiens) was over 10000 nM, the IC50 (RKO; Homo sapiens) was over 10000 nM and the IC50 (HepG2) was 4.4 nM.
With C[C@H]1Cn2ccc3nc(NCc4cnn(CC(F)(F)F)c4)nc(c32)N1C [80 (W104)] the IC50 [1] was 10 nM, the IC50 (Colo205; Homo sapiens, COLO 205) was 24.6 nM and the IC50 (DU4475; Homo sapiens, DU-4475) was 27.5 nM. The IC50 (Hela; Homo sapiens) was over 10000 nM, the IC50 (RKO; Homo sapiens) was over 10000 nM and the IC50 (HepG2) was 9.3 nM.
In the case of CO[C@H](C)[C@H]1C(=O)N2CCCc3nc(NCc4ccc(Oc5ccc(C(F)(F)F)nc5)nc4)nc(c32)N1C [114 (W243), (S)-5-((R)-1-methoxyethyl)-4-methyl-2-(((6-((6-(trifluoromethyl)pyridin-3-yl)oxo)pyridin-3-yl)methyl)amino)-4,5,9,10-tetrahydro-6H,8H-pyrido[3,2,1-de]pteridin-6-one], the IC50 [1] is reported as 27 nM, the IC50 (Colo205; Homo sapiens, COLO 205) is reported as 23 nM and the IC50 (DU4475; Homo sapiens, DU-4475) is reported as 20 nM. The IC50 (Hela; Homo sapiens) was over 10000 nM, the IC50 (RKO; Homo sapiens) was over 10000 nM and the IC50 (NCI-H929; Homo sapiens) was 60 nM. For the same molecule, the IC50 (HepG2) was 37 nM.
With “(S)-4,5-dimethyl-2-(((6-((6-(trifluoromethyl)pyridin-3-yl)oxy)pyridin-3-yl)methyl)amino)-4,5,9,10-tetrahydro-6H,8H-pyrido[3,2,1-de]pteridin-6-one [Example 11]” the IC50 [1] was 61 nM, the IC50 (Colo205) was 32 nM and the IC50 (DU4475) was 37 nM. For the same molecule, the IC50 (Hela) was over 10000 nM, the IC50 (RKO) was over 10000 nM and the IC50 (NCI-H929) was 55 nM. For the same molecule, the “% T/CRTV Day 21” value [2] was 1.59%, the “% TGITW Day 21” value [2] was 98.86% and the “% TGItv Day 21” value [2] was 98.42%. For the same molecule, the “RTV Day 21” value [2] was 0.33 and the “Tumor weight Day 21” value [2] was 0.023 g.
C[C@H]1Cn2ccc3nc(NCc4ccc(OCC(F)(F)F)nc4)nc(c32)N1C [82 (W107)] gave an IC50 [1] of 6 nM, an IC50 (Colo205; Homo sapiens, COLO 205) of 12.4 nM and an IC50 (DU4475; Homo sapiens, DU-4475) of 11 nM. It also gave an IC50 (Hela; Homo sapiens) of 1440 nM, an IC50 (RKO; Homo sapiens) of 1830 nM and an IC50 (HepG2) of 1 nM.
Molecule CC(C)[C@H]1C(=O)N2CCCc3nc(NCc4ccc(Oc5ccc(C(F)(F)F)nc5)nc4)nc(c32)N1C [117 (W237), (S)-5-isopropyl-4-methyl-2-(((6-((6-(trifluoromethyl)pyridin-3-yl)oxo)pyridin-3-yl)methyl)amino)-4,5,9,10-tetrahydro-6H,8H-pyrido[3,2,1-de]pteridin-6-one] has an IC50 [1] of 4 nM, an IC50 (Colo205; Homo sapiens, COLO 205) of 3.4 nM and an IC50 (DU4475; Homo sapiens, DU-4475) of 8.2 nM. The IC50 (Hela; Homo sapiens) was over 10000 nM, the IC50 (RKO; Homo sapiens) was over 10000 nM and the IC50 (NCI-H929; Homo sapiens) was 27 nM. The IC50 (HepG2) was 3.1 nM.
For C[C@H]1CN(C)c2nc(NCc3cnn(Cc4ccc(C(F)(F)F)nc4)c3)nc3ccn1c23 [Example 19, (S)-4,6-dimethyl-N-((1-((6-(trifluoromethyl)pyridin-3-yl)methyl)-1H-pyrazol-4-yl)methyl)-5,6-dihydro-4H-pyrrolo[3,2,1-de]pteridin-2-amine], the IC50 [1] was 9 nM, the IC50 (Colo205; Homo sapiens, COLO 205) was 8 nM and the IC50 (DU4475; Homo sapiens, DU-4475) was 9 nM. For the same molecule, the IC50 (Hela; Homo sapiens) was over 10000 nM and the IC50 (RKO; Homo sapiens) was over 10000 nM.
COC[C@H]1CN(C)c2nc(NCc3cnn(Cc4ccc(C(F)(F)F)nc4)c3)nc3cc(C)n1c23 [Example 25, (R)-6-(methoxymethyl)-4,8-dimethyl-N-((1-((6-(trifluoromethyl)pyridin-3-yl)methyl)-1H-pyrazol-4-yl)methyl)-5,6-dihydro-4H-pyrrolo[3,2,1-de]pteridin-2-amine] was tested, and the IC50 [1] was 19 nM, the IC50 (Colo205; Homo sapiens, COLO 205) was 44 nM and the IC50 (DU4475; Homo sapiens, DU-4475) was 50 nM. For the same molecule, the IC50 (Hela; Homo sapiens) was over 10000 nM and the IC50 (RKO; Homo sapiens) was over 10000 nM.
Work on CN1CC(F)(F)Cn2ccc3nc(NCc4cnn(Cc5ccc(C(F)(F)F)nc5)c4)nc1c32 [Example 26, 8,8-difluoro-6-methyl-N-((1-((6-(trifluoromethyl)pyridin-3-yl)methyl)-1H-pyrazol-4-yl)methyl)-6,7,8,9-tetrahydro-3,5,6,9a-tetraazabenzo[cd]azulene-4-amine] yielded an IC50 [1] of 19 nM, an IC50 (Colo205; Homo sapiens, COLO 205) of 35 nM and an IC50 (DU4475; Homo sapiens, DU-4475) of 28 nM. For the same molecule, the IC50 (Hela; Homo sapiens) was over 10000 nM and the IC50 (RKO; Homo sapiens) was over 10000 nM.
Molecule O=C1[C@@H]2CCCN2c2nc(NCc3ccc(Oc4ccc(C(F)(F)F)nc4)nc3)nc3c2N1CCC3 [111 (W241), (S)-2-(((6-((6-(trifluoromethyl)pyridin-3-yl)oxo)pyridin-3-yl)methyl)amino)-5,6,8a,9, 10,11-hexahydro-4H,8H-pyrido[3,2,1-de]pyrrolo[2,1-h]pteridin-8-one] has an IC50 [1] of 21 nM, an IC50 (Colo205; Homo sapiens, COLO 205) of 20 nM and an IC50 (DU4475; Homo sapiens, DU-4475) of 37 nM. For the same molecule, the IC50 (Hela; Homo sapiens) was over 10000 nM, the IC50 (RKO; Homo sapiens) was over 10000 nM and the IC50 (NCI-H929; Homo sapiens) was 94 nM. For the same molecule, the IC50 (HepG2) was 40 nM.
With C[C@H]1Cn2ccc3nc(NCc4ccc(Oc5ccccc5)cc4)nc(c32)N1C [67 (W46)] the IC50 [1] was 34 nM, the IC50 (Colo205; Homo sapiens, COLO 205) was 60.4 nM and the IC50 (DU4475; Homo sapiens, DU-4475) was 62.5 nM. The IC50 (Hela; Homo sapiens) was 1090 nM and the IC50 (RKO; Homo sapiens) was 1180 nM.
C[C@H]1Cn2ccc3nc(NCc4ccc(OCc5ccccc5)cc4)nc(c32)N1C [74 (W69)] gave an IC50 [1] of 10 nM, an IC50 (Colo205; Homo sapiens, COLO 205) of 39 nM and an IC50 (DU4475; Homo sapiens, DU-4475) of 46 nM. The IC50 (Hela; Homo sapiens) was 5510 nM and the IC50 (RKO; Homo sapiens) was 1690 nM.
For CN1c2nc(NCc3cnn(CC(F)(F)F)c3)nc3ccn(c23)CC1(C)C [84 (W123)], the IC50 [1] was 17 nM, the IC50 (Colo205; Homo sapiens, COLO 205) was 41 nM and the IC50 (DU4475; Homo sapiens, DU-4475) was 36 nM. The IC50 (Hela; Homo sapiens) was 4760 nM and the IC50 (RKO; Homo sapiens) was 5540 nM.
C[C@H]1C(=O)N2CCCc3nc(NCc4ccc(Oc5ccnc(C(F)(F)F)c5)nc4)nc(c32)N1C [100 (W239)] showed an IC50 [1] of 50 nM, an IC50 (Colo205; Homo sapiens, COLO 205) of 59 nM and an IC50 (DU4475; Homo sapiens, DU-4475) of 52 nM. For the same molecule, the IC50 (Hela; Homo sapiens) was over 10000 nM and the IC50 (RKO; Homo sapiens) was over 10000 nM.

Source: US12622917B2, “High-activity Wnt pathway inhibitor compound” (ADLAI NORTYE BIOPHARMA CO., LTD., priority 2020, dated 2026)
